Key:
[1] = target: T1, PDGF-β receptor tyrosine kinase intracellular domain / p85 SH2 fusion protein (PDGF Receptor/PI3-Kinase Association) (Homo sapiens, UniProt P27986); assay: p85 SH2--PDGF-β Receptor Binding Assay; conditions: [35S]p85 C-terminal SH2 fusion protein binding to phosphorylated PDGF-β receptor; 25° C., 20 minutes
T1 construct: The pGEX plasmid expressing the carboxy-terminal SH2 of the p85 subunit of PI3-kinase; made in house; host or cells: p85 SH2-GST: E. coli; PDGF-β receptor intracellular domain: SF9 insect cells, obtained from L. T. Williams (UCSF)
Description: The pGEX plasmid expressing the carboxy-terminal SH2 of the p85 subunit of PI3-kinase in a glutathione-s-transferase (GST) fusion protein was used in these studies. Expression and purification of the fusion protein was performed as previously described by Zhu, et al., J. Biol. Chem., 1993;268:1175. To prepare [^35 S]p85 fusion proteins, a 125 mL overnight culture of E. coli expressing the p85-GST fusion protein was added to 1000 mL of LB broth containing 100 μg/mL ampicillin. The cultures were incubated at 37° C. until reaching a density of A600 =1.0. 1 mM of isopropyl-β-D-thiogalactoside was added and 15 minutes later, 10 mCi of trans ^35 S-label was added and cultures incubated for an additional 3 hours at 37° C. The cells were then lysed by sonication and fusion proteins purified over glutathione-agarose beads.
Lysates from SF9 insect cells expressing the PDGF-β receptor tyrosine kinase intracellular domain, obtained from L. T. Williams at the University of California at San Francisco, were incubated with M2 affinity beads and the complexes were washed several times with Tris buffer containing protease inhibitors and sodium orthovanadate. Complexes were centrifuged and resuspended in N-[2-hydroxyethyl]piperazine-N'-[2-ethane sulfonic acid] (HEPES) buffer containing 1 mM adenosine triphosphate (ATP), 10 mM MnCl2, and 5 mM MgCl2 to stimulate phosphorylation of the PDGF receptor.
Binding of [^35 S]p85 SH2 fusion proteins to the phosphorylated PDGF-β receptor tyrosine kinase intracellular domain was assayed in Hepes buffer containing ethylene diamine tetraacetic acid (EDTA), NP-40 and […] of each of the protease inhibitors, PMSF, pepstatin, leupeptin, and aprotinin. Binding assays were performed in 96-well millipore filter plates in a final volume of […] of HEPES buffer containing 135 μL phosphorylated PDGF receptor-beads complex (1 μg receptor/well), 10 μL [^35 S]p85 SH2 fusion protein (30,000 cpm/well), and 5 μL of peptide inhibitor as indicated. Samples were incubated at 25° C. for 20 minutes with continuous rocking. Binding was terminated by filtration through the filter plates using a millipore multiscreen filtration manifold Millipore, Bedford, Mass.). Filter plates were washed four times with 0.15 mL Hepes buffer followed by the addition of 40 μL hi-load scintillant and radioactivity retained on the filters was counted in a Wallac 1450 Microbeta counter (Wallac Inc, Gaithersburg, Md.). Total binding was defined as [^35 S]p85 fusion protein bound to the PDGF-β receptor-bead complex retained on the filter plate after washing. Nonspecific binding was defined as radioactivity retained on the filter plates in the presence of excess unlabeled p85 fusion protein. Specific binding was defined as total binding minus nonspecific binding. IC50 values were calculated by weighted nonlinear regression curve fitting.

[2] = target: T2, PDGF Receptor/PI 3-Kinase association in rat aortic smooth muscle cells (Rattus norvegicus, UniProt Q63787); assay: PDGF Receptor/PI 3-Kinase Cell Association Assay; type: cell-based; conditions: RASMC, PDGF-BB 30 ng/mL 5 minutes; for inhibition at 25 µM: printed in the Cellular IC50 column, read-out: Inhibition of PDGF Receptor/PI3-Kinase Association (Cellular)
T2 construct: endogenous in cells; host or cells: rat aortic smooth muscle cells (RASMC), primary, passages 5 to 20
Description: Smooth muscle cells were isolated from the thoracic aorta of rats (RASMC) and explanted according to the method of Ross, J. Biol. Chem., 1971;30:172-86. Cells were grown in Dulbecco's modified Eagle's medium (DMEM, Gibco) containing 10% fetal calf serum (FBS, Hyclone, Logan, Utah), 1% glutamine (Gibco) and 1% penicillin/streptomycin (Gibco). Cells were identified as smooth muscle cells by their "hill and valley" growth pattern and by fluorescent staining with a monoclonal antibody specific for SMC […] (Sigma). RASMC were used between passages 5 and 20 for all experiments. Test compounds were prepared in dimethylsulfoxide (DMSO) in order to achieve consistency in the vehicle and to ensure compound solubility. Appropriate DMSO controls were simultaneously evaluated with the test compounds.
Rat aortic smooth muscle cells were grown to confluency in 100 mm dishes. Growth medium was removed and replaced with serum-free medium and cells were incubated at 37° C. for an additional 24 hours. Test compounds were then added directly to the medium and cells incubated for an additional 24 hours. After 24 hours PDGF-BB was added at a final concentration of 30 ng/mL for 5 minutes at 37° C. to stimulated autophosphorylation of the PDGF receptor and association of PI 3-kinase to the phosphorylated receptors. […] Following incubation with ^125 I-protein-A, p85 protein levels were detected by phosphorimage analysis and protein bands quantitated via densitometry. […]

T2 sequence (Q63787 whole entry): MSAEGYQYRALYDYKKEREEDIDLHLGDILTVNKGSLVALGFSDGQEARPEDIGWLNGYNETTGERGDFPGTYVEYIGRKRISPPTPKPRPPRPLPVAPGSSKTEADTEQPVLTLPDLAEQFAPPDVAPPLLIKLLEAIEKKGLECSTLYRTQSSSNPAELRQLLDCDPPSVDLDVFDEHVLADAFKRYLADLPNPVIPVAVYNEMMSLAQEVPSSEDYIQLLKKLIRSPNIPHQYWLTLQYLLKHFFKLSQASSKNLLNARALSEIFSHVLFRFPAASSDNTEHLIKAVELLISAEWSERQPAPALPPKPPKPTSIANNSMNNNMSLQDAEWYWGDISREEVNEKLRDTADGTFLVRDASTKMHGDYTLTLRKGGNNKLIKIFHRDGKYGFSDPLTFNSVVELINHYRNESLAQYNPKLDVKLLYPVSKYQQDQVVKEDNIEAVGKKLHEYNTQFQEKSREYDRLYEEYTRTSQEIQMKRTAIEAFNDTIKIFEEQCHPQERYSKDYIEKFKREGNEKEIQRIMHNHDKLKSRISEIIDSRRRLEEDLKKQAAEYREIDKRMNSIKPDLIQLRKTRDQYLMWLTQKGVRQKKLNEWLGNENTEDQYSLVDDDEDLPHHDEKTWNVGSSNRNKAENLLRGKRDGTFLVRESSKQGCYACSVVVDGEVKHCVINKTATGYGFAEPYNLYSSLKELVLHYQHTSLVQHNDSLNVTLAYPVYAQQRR
T1 sequence (P27986 624-718 limits assumed): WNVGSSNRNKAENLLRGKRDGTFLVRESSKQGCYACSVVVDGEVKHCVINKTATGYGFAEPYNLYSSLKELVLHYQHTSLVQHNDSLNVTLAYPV

Row | Compound | IC50 [1] [µM] | inhibition at 25 µM [2] [%] | IC50 ([2]; 24 h compound, p85 immunoblot, read-out: Cellular IC50) [µM]
1 | CCCCCCN(CCCCCC)C(=O)[C@H](C)NC(=O)[C@@H](NC(=O)[C@H](Cc1ccc(C(F)(F)P(=O)(O)O)cc1)NC(C)=O)C(C)C [Example 1, [1S-[1R*[R*(R*)]]]-[(4-{2-Acetylamino-2-[1-(1-dihexylcarbamoyl-ethylcarbamoyl)-2-methyl-propylcarbamoyl]-ethyl}-phenyl)-difluoro-methyl]-phosphonic acid] | 0.45 ± 0.04 |  | 
2 | CCCCCN(CCCCC)C(=O)[C@H](C)NC(=O)[C@@H](NC(=O)[C@H](Cc1ccc(C(F)(F)P(=O)(O)O)cc1)NC(C)=O)C(C)C [Example 2, [1S-[1R*[R*(R*)]]]-[(4-{2-Acetylamino-2-[1-(1-dipentylcarbamoyl-ethylcarbamoyl)-2-methyl-propylcarbamoyl]-ethyl}-phenyl)-difluoro-methyl]-phosphonic acid] | 0.29 ± 0.08 | 30 | 
3 | CCCCCCCCN(CCCCCCCC)C(=O)[C@H](C)NC(=O)[C@@H](NC(=O)[C@H](Cc1ccc(C(F)(F)P(=O)(O)O)cc1)NC(C)=O)C(C)C [Example 3, [1S-[1R*[R*(R*)]]]-[(4-{2-Acetylamino-2-[1-(1-dioctylcarbamoyl-ethylcarbamoyl)-2-methyl-propylcarbamoyl]-ethyl}-phenyl)-difluoro-methyl]-phosphonic acid] | 12.2 ± 0.9 |  | 
4 | CCCCCCN(CCCCCC)C(=O)[C@H](C)NC(=O)[C@@H](NC(=O)[C@H](Cc1ccc(OP(=O)(O)O)cc1)NC(C)=O)C(C)C [Example 4, [1S-[1R*[R*(R*)]]]-Phosphoric acid mono-(4-{2-acetylamino-2-[1-(1-dihexylcarbamoyl-ethylcarbamoyl)-2-methyl-propylcarbamoyl]-ethyl}-phenyl) ester] | 0.08 ± 0.01 | 27 | 
5 | CCCCN(CCCC)C(=O)[C@H](C)NC(=O)[C@@H](NC(=O)[C@H](Cc1ccc(OP(=O)(O)O)cc1)NC(C)=O)C(C)C [Example 6, [1S-[1R*[R*(R*)]]]-Phosphoric acid mono-(4-{2-acetylamino-2-[1-(1-dibutylcarbamoyl-ethyl-carbamoyl)-2-methyl-propylcarbamoyl]-ethyl}-phenyl) ester] | 1.6 ± 0.32 |  | 37.5
6 | CCCCCN(CCCCC)C(=O)[C@H](C)NC(=O)[C@@H](NC(=O)[C@H](Cc1ccc(OP(=O)(O)O)cc1)NC(C)=O)C(C)C [Example 8, [1S-[1R*[R*(R*)]]]-Phosphoric acid mono-(4-{2-acetylamino-2-[1-(1-dipentylcarbamoyl-ethyl-carbamoyl)-2-methyl-propylcarbamoyl]-ethyl}-phenyl) ester] | 0.22 |  | 
7 | CCCCCCCCN(CCCCCCCC)C(=O)[C@H](C)NC(=O)[C@@H](NC(=O)[C@H](Cc1ccc(OP(=O)(O)O)cc1)NC(C)=O)C(C)C [Example 10, [1S-[1R*[R*(R*)]]]-Phosphoric acid mono-(4-{2-acetylamino-2-[1-(1-dioctylcarbamoyl-ethyl-carbamoyl)-2-methyl-propylcarbamoyl]-ethyl}-phenyl) ester] | 3.5 ± 0.5 |  | 

Source: patent publication US6136798A, “Compounds inhibiting the association of the PDGF receptor and phosphatidylinositol 3-kinase and their use” (Warner-Lambert Company, priority 1999, dated 2000)
